US20130197030A1, “Substituted 1,3-Dioxanes and There Uses” (Evolva Sa, priority 2007, published 2013)

How the values were obtained:
[1] = target: T1, Human Recombinant (E. coli) PPARgamma (Homo sapiens, UniProt P37231); experiment: PPAR gamma binding assay
T1 construct: host or cells: E. coli
T1 sequence (P37231 1-505): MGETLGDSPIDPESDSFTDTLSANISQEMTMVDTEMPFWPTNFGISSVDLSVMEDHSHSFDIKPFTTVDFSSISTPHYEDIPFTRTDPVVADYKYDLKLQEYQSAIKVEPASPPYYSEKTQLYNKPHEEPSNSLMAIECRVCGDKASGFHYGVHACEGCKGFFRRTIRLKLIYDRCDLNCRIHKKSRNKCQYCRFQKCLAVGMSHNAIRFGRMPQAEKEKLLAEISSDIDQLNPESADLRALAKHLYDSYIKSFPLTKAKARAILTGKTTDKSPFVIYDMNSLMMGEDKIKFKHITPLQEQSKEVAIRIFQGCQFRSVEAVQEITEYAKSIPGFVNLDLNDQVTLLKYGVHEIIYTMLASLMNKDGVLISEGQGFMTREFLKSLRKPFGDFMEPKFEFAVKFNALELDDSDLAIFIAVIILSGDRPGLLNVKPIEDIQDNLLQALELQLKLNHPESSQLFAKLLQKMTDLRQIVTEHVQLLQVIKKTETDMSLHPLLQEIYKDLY
Protocol: Incubation: 120 min. at 4° C.
The results are expressed as a percent of control specific binding ((measured specific binding/control specific binding)×100) obtained in the presence of the test compounds. The IC50 values (concentration causing a half-maximal inhibition of control specific binding) and Hill coefficients (nil) were determined by non-linear regression analysis of the competition curves generated with mean replicate values using Hill equation curve fitting (Y=D+[(A−D)/(1+(C/C50)nH)], where Y=specific binding, D=minimum specific binding, A=maximum specific binding, C=compound concentration, C50=IC50, and nH=slope factor). This analysis was performed using a software developed at Cerep (Hill software) and validated by comparison with data generated by the commercial software SigmaPlot 4.0 for Windows® (© 1997 by SPSS Inc.). The inhibition constants (Ki) were calculated using the Cheng Prusoff equation (Ki=IC50/(1+(L/KD)), where L=concentration of radioligand in the assay, and KD=affinity of the radioligand for the receptor).

KKA^y mice = experiment: In vivo effect on serum glucose and other parameters in KKA^y mice; conditions: dose not given
Protocol: 52 male KKA^y mice are obtained commercially (e.g., from Clea Japan) at an age of 6 weeks and put on a high fat diet upon arrival. Individual mice were housed in IVC Type II cages during both the acclimatization and the experimental phase. Both food (high fat diet) and water are supplied ad libitum.
1 animal per cage. […] Lights on at 06:00 a.m. Temperature: 21-25° C. Relative humidity target range: 55-60%.
Mice were randomized into treatment groups according to their 4-h fasting blood glucose.
4 hours after the last administration, non-fasting conditions.
Gamma irradiated high fat diet is commercially available (e.g., Research Diets, Inc. New Brunswick, N.J. (Product # D12266BI)).
Blood is collected into heparin containing glass capillaries which are subsequently centrifuged in a “Haematokrit 24” centrifuge (Hettich) at 15′200×g for 10 minutes at room temperature to obtain the hematocrit value.
The following serum parameters are determined on a COBAS INTEGRA 800 auto analyzer (Roche Diagnostics, Switzerland) using the reagents and protocols provided by the supplier.
All measurements are made on Day 14 of administration, except for the food intake and body weight measurements that are made on Day 12.

[2] = tested on: arterial thrombosis in a mouse model; experiment: Arterial thrombosis in a mouse model (FeCl3, femoral artery); assay type: in vivo; conditions: mice; dose not given
Protocol: The solutions are diluted 3.3-fold in saline and 100 μl/25 g is injected. Thus, the above-mentioned doses of 100 and 300 mg/kg of compound correspond to final doses of 30 and 100 mg/kg.
During the experiments, a soluble salt of the drug is provided (e.g., potassium salt of compound C), diluted in saline. Of this formulation, 100 μl/25 g is injected i.v. in the tail vein (dose of 100 mg/kg).
Solutions are injected (100 μl/25 g body weight) i.v. in the tail vein over 2 min to obtain doses of each compound of 30 mg/kg and 100 mg/kg. Aspirin is given the same way at a dose of 200 mg/kg. Clopidogrel is administered by oral gavage at a dose of 20 mg/kg at 6-7 hours prior to the experiment. The animals assigned to each group are matched for body weight. Mice are typically 8-10 weeks old males and are in a 100% Swiss genetic background.
The flow in each image is expressed as a percentage of that at the contralateral side, and data are averaged for all 120 images to determine total flow. The same analysis is performed for 10 min intervals (which gives essentially the same information as the area under the curve). […] Flow before treatment is recorded as 100%, and that in occluded arteries as 0%. At the end of the experiment, blood is collected on 0.01M citrate buffer by heart puncture for determination of blood cell counts. Plasma is prepared by centrifugation and stored at −20° C. for determination of drug levels.
Statistical analysis for differences between two groups is performed by non-parametric Student t-test. Occlusion times >30 min were considered equal to 30 min for statistical analysis. Significance is set at p<0.05.

Ki ([1]; [3H]-rosiglitazone 10 nM, Cheng Prusoff, read-out: PPARγ binding Ki): 2.7 µM
IC50 ([1]; [3H]-rosiglitazone 10 nM, read-out: PPARγ binding IC50): 7.4 µM
Heart weight (KKA^y mice; 14-day oral gavage BID): has no effect on heart weight
Compound: O=C(O)CC/C=C\CC1COC(c2coc3ccc(Cl)cc3c2=O)OC1c1ccccc1O (racemic) [Compound 3, (Z)-6-(2-(6-Chloro-4-oxo-4H-chromen-3-yl)-4-(2-hydroxyphenyl)-1,3-dioxan-5-yl)hex-4-enoic acid]
Binding to PPARgamma (in words) ([1]; compared with Compound A): binds to PPARgamma at least as well as Compound A
FFA (KKA^y mice; 14-day oral gavage BID): decreases the FFA
HbA1c levels (KKA^y mice; 14-day oral gavage BID): decreased
Body weight (KKA^y mice; oral gavage BID): do not alter body weight
Occlusion time [2]: prolongs the occlusion time
Total blood flow [2]: improves total blood flow
